Data reported in patent publication US8697659B2, “Analogues of glycolipids useful as immunoadjuvants” (Luigi Panza, priority 2007, dated 2014).

Key:
[1] = tested on: mouse T cell hybridomas FF13; test: IL-2 secretion by recognition of glycolipids by a murine NKT cell line (FF13 hybridoma, THP1 hCD1d as APC, ELISA); type: cell-based; settings: at 10 micromolar; CD1d-transfected THP-1 cells exposed two hours to test compound; IL-2 in medium determined 48 hrs later
Experimental: As a measure of T cell activation, IL2 release into the culture medium was determined after 48 hours culture by an ELISA assay. […] The x-axis is amount of glycolipid in μg/ml.
The biological evaluation of compounds of the invention uses mouse Vα14i NKT cells immortalized by cell fusion to give hybridomas FF13 through the presentation by APC (THP1). As a measure of T cell activation, IL2 release into the culture medium was determined after 48 hours culture by an ELISA assay. […]
100 μl FF13 in complete medium were added (10×10^4 per well) and after 48 hours the tests were evaluated for IL2 production.
IL2 concentration is evaluated by ELISA using a primary monoclonal Anti-mouse IL-2 Antibody (R&D System), a biotinylated detection anti-mouse IL-2 Antibody (R&D System) and as color developer SIGMA FAST OPD. […]
FIG. 2 depicts the IL2 levels released by cells that had been treated with compounds 13-16, compared to the effect of alpha-GalCer itself, in an NKT cell hybridoma test. The a-GalCer specific NKT hybridoma cells were added to CD1d-transfected THP-1 cells that had been exposed for two hours to various doses of the test compound (about 0.1 to about 10 μg/mL), and IL-2 levels in the medium were determined 48 hrs later.

Solubility in water = type: physicochemical
Experimental: In some embodiments, the compounds of the invention have a solubility of at least about 0.5 mg/mL, 1 mg/mL, 2 mg/mL, 5 mg/mL, 7.5 mg/mL, 10 mg/mL, 12.5 mg/mL, 15 mg/mL, 17.5 mg/mL, 20 mg/mL, 25 mg/mL, 30 mg/mL, 40 mg/mL, 50 mg/mL, 75 mg/mL, 100 mg/mL, 150 mg/mL or 200 mg/mL in an aqueous solution.

With `CCCCCCCCCCCCCCCCCCCCCCCCCC(=O)N[C@@H](COC1OC(CO)C(O)C(O)C1O)[C@H](O)[C@H](O)COCCOCCCC` (stereo partly drawn) [Compound 13, (2S,3S,4R)-5-O-(2-butoxyetil)-2-(N-exacosanoylamino)-1-O-(α-D-galactopyranosyl)-1,3,4,5-pentanetetraol] the “IL2 levels released, compared to the effect of alpha-GalCer” value [1] was “as effective as a-GalCer”.

In the case of `CCCCCCCCCCCCCCCCCCCCCCCCCC(=O)N[C@@H](CO[C@H]1OC(CO)[C@H](O)C(O)C1O)[C@H](O)[C@H](O)COCCCc1ccccc1` (stereo partly drawn) [Compound 15], the solubility in water (Solubility in water) is reported as “soluble in water”.

With `CCCCCCCCCCCCCCCCCCCCCCCCCC(=O)N[C@@H](CO[C@H]1OC(CO)[C@H](O)C(O)C1O)[C@H](O)[C@H](O)COCCCc1ccccc1` (stereo partly drawn) [Compound 16] the “IL2 levels released, compared to the effect of alpha-GalCer” value [1] was “as effective as a-GalCer”.
